Measurements reported in article PMC6934184, “Selective DNA-PKcs inhibition extends the therapeutic index of localized radiotherapy and chemotherapy” (The Journal of Clinical Investigation, 2019).

Molecular target: T1, BLK (Homo sapiens, UniProt P51451)
T1 construct: purchased Thermo Fisher Scientific (Life Technologies) SelectScreen
Assay: SelectScreen Z'LYTE
Format: biochemical
In short: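 Percent values come from Thermo SelectScreen profiling of NU5455, combining activity and binding assays. CSF1R was run in Z'LYTE format at Km app ATP, and CAMK1 in Adapta format with ATP listed at 10.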

T1 sequence (P51451 whole entry): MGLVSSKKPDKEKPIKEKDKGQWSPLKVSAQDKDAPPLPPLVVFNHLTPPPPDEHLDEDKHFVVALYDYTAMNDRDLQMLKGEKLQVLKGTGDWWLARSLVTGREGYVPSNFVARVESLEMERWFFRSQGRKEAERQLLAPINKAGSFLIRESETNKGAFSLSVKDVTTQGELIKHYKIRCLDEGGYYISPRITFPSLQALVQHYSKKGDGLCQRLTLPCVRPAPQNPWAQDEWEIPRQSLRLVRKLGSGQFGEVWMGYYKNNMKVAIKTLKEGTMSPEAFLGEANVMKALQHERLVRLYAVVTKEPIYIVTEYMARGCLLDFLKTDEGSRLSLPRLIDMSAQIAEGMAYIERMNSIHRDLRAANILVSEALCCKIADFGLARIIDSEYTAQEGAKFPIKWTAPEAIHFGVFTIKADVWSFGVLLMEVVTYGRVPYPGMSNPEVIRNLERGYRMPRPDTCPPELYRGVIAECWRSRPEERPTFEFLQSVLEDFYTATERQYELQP

CN(C(=O)CN1CCOCC1)c1ccc2sc3c(-c4cccc5c(=O)cc(N6CC7CCC(C6)O7)oc45)cccc3c2c1 [NU5455]
inhibition at 1 µM: -8.9%
